Source: ChEMBL document CHEMBL2417435, “The discovery of potent blockers of the canonical transient receptor channels, TRPC3 and TRPC6, based on an anilino-thiazole pharmacophore” (Bioorg Med Chem Lett, 2013)

Experiments:
Rattus norvegicus [1] = assay: Mean residence time in rat at 0.92 mg/kg, iv; type: ADME, organism-based; design: dose 0.92 mg/kg, route intravenous; conditions: in vivo
[2] = target: T1, Short transient receptor potential channel 3 (Homo sapiens, UniProt Q13507); assay: Inhibition of human recombinant TRPC3 expressed in HEK293-MSRII cells assessed as carbachol-stimulated Ca2+/Na+ influx after 10 mins by FLIPR assay; type: cell-based
T1 sequence (Q13507 whole entry): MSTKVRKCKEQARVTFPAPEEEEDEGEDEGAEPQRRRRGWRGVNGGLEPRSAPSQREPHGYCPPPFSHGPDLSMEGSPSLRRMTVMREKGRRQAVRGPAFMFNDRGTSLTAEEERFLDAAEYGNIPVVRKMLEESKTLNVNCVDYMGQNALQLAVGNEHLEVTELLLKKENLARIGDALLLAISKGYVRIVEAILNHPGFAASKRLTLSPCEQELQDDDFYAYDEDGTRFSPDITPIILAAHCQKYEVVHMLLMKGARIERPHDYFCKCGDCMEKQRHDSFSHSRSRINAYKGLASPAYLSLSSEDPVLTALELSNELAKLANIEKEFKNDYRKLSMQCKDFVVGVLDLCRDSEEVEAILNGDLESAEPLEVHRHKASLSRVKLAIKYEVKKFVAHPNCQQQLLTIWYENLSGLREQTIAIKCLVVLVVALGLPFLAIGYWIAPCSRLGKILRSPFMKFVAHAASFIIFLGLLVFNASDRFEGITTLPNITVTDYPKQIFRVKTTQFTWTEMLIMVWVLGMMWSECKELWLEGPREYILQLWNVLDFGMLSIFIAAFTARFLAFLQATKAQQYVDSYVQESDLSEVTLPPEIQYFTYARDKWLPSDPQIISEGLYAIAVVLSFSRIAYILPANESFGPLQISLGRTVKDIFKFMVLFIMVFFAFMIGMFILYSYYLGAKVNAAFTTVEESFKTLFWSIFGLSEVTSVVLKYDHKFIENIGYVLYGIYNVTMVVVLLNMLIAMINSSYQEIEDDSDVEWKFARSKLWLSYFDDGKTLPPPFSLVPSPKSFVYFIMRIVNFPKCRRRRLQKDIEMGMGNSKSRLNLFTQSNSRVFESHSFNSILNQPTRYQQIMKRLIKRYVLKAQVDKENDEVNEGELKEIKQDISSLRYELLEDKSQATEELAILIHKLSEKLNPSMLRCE

[3] = target: T2, Short transient receptor potential channel 6 (Homo sapiens, UniProt Q9Y210); assay: Inhibition of human recombinant TRPC6 expressed in HEK293-MSRII cells assessed as carbachol-stimulated Ca2+/Na+ influx after 10 mins by FLIPR assay; type: cell-based
T2 sequence (Q9Y210 whole entry): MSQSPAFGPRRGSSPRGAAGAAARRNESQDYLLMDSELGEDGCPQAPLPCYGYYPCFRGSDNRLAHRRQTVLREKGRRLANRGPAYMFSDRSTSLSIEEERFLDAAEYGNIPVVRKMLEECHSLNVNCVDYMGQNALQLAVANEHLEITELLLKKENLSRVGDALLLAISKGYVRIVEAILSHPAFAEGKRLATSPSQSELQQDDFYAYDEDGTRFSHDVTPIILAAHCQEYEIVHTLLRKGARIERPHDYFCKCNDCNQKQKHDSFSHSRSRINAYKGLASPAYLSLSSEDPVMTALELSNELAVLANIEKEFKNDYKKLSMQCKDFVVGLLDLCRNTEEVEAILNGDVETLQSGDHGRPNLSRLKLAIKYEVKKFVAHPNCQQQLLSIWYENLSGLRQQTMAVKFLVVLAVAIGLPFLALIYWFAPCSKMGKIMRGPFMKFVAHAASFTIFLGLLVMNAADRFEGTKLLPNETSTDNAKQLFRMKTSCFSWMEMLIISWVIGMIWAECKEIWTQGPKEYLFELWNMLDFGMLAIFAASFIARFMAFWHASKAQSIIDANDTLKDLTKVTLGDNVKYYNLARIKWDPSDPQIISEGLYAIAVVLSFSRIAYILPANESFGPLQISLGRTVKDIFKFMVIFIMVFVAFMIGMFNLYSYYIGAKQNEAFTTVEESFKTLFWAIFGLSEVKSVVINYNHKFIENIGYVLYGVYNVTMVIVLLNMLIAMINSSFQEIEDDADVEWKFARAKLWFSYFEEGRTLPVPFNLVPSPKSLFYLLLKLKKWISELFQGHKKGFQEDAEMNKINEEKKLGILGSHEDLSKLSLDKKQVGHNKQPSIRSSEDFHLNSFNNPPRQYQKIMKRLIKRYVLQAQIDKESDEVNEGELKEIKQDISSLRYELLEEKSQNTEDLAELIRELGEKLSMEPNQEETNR

[4] = Cmax in rat at 0.92 mg/kg, iv; type: ADME, organism-based; design: dose 0.92 mg/kg, route intravenous; conditions: in vivo
[5] = Oral bioavailability in rat at 0.92 mg/kg; type: ADME, organism-based; conditions: in vivo
Rattus norvegicus [6] = assay: Dose normalized AUC in rat at 0.92 mg/kg, iv; type: ADME, organism-based; design: dose 0.92 mg/kg, route intravenous; conditions: in vivo
Rattus norvegicus [7] = assay: Volume of distribution at steady state in rat at 0.92 mg/kg, iv; type: ADME, organism-based; design: dose 0.92 mg/kg, route intravenous; conditions: in vivo
[8] = Oral bioavailability in rat at 1.04 mg/kg; type: ADME, organism-based; conditions: in vivo
Rattus norvegicus [9] = assay: Dose normalized AUC in rat at 1.04 mg/kg, iv; type: ADME, organism-based; design: dose 1.04 mg/kg, route intravenous; conditions: in vivo
[10] = Cmax in rat at 1.04 mg/kg, iv; type: ADME, organism-based; design: dose 1.04 mg/kg, route intravenous; conditions: in vivo
[11] = target: Voltage-gated inwardly rectifying potassium channel KCNH2 (Homo sapiens, UniProt Q12809); assay: Inhibition of human ERG channel by patch express-based electrophysiology assay
[12] = target: Transient receptor potential cation channel subfamily A member 1 (Homo sapiens, UniProt O75762); assay: Inhibition of TRPA1 (unknown origin) by FLIPR assay
[13] = Clearance in rat at 1.04 mg/kg, iv; type: ADME, organism-based; design: dose 1.04 mg/kg, route intravenous; conditions: in vivo
[14] = target: Transient receptor potential cation channel subfamily V member 1 (Homo sapiens, UniProt Q8NER1); assay: Inhibition of TRPV1 (unknown origin) by FLIPR assay
[15] = Mean residence time in rat at 1.04 mg/kg, iv; type: ADME, organism-based; design: dose 1.04 mg/kg, route intravenous; conditions: in vivo
[16] = target: Voltage-dependent L-type calcium channel subunit alpha-1C (Homo sapiens, UniProt Q13936); assay: Inhibition of CaV1.2 channel (unknown origin) by patch express-based electrophysiology assay
Voltage-dependent L-type calcium channel subunit alpha-1C, sequence (Q13936 whole entry): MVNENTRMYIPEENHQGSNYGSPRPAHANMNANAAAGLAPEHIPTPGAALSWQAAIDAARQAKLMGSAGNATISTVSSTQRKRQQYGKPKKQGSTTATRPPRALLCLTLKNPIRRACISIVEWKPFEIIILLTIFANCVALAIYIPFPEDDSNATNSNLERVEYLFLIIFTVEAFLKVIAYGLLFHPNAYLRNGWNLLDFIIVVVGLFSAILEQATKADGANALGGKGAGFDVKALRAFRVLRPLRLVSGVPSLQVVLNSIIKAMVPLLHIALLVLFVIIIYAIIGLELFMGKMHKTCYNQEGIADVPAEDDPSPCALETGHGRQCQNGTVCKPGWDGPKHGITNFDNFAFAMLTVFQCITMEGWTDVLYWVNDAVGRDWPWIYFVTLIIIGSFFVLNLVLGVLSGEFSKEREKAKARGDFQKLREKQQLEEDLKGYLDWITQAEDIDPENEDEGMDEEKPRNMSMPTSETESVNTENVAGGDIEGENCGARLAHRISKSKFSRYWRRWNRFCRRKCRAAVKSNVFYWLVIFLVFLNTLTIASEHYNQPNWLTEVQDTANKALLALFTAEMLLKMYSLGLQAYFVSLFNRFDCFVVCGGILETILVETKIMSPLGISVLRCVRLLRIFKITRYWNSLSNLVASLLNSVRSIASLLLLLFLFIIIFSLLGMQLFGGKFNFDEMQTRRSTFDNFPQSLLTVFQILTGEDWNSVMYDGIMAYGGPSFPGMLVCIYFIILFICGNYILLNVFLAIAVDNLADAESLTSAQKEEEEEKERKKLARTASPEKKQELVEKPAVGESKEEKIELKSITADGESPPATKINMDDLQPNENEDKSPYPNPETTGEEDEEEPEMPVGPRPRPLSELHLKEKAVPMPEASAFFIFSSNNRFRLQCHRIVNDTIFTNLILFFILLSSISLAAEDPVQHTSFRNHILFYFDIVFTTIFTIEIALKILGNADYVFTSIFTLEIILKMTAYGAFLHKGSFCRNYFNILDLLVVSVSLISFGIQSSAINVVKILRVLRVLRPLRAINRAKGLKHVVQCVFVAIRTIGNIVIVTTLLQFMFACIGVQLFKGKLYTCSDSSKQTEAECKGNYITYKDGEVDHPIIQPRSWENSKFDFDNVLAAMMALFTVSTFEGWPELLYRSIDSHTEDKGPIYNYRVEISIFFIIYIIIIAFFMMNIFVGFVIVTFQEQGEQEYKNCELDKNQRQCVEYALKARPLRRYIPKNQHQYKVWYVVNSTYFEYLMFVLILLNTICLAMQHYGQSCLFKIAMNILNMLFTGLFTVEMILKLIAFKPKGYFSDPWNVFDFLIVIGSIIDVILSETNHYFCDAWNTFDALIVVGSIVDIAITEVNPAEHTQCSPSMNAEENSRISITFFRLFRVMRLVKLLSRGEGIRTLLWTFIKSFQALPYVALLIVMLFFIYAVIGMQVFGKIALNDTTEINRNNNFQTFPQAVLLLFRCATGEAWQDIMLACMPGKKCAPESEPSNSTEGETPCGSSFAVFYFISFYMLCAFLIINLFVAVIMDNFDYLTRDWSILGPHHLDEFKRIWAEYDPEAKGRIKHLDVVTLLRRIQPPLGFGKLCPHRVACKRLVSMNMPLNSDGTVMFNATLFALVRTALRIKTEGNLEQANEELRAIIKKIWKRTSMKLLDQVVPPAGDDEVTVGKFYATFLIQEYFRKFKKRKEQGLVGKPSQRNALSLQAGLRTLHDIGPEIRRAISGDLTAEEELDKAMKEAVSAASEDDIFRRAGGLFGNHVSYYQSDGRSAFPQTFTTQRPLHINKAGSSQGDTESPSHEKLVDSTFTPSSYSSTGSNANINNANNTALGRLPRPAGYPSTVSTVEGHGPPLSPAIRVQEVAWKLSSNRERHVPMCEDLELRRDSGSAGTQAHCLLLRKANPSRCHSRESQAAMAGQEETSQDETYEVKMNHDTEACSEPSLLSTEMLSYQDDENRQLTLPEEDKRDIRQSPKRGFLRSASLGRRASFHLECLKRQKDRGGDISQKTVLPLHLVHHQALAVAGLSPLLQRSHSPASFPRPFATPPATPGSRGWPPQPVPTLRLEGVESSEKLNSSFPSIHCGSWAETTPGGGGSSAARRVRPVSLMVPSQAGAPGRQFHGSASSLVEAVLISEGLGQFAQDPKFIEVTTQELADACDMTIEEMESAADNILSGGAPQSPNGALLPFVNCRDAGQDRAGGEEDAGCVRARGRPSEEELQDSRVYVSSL

[17] = target: Sodium channel protein type 5 subunit alpha (Homo sapiens, UniProt Q14524); assay: Inhibition of NaV1.5 channel (unknown origin) by patch express-based electrophysiology assay
Sodium channel protein type 5 subunit alpha, sequence (Q14524 whole entry): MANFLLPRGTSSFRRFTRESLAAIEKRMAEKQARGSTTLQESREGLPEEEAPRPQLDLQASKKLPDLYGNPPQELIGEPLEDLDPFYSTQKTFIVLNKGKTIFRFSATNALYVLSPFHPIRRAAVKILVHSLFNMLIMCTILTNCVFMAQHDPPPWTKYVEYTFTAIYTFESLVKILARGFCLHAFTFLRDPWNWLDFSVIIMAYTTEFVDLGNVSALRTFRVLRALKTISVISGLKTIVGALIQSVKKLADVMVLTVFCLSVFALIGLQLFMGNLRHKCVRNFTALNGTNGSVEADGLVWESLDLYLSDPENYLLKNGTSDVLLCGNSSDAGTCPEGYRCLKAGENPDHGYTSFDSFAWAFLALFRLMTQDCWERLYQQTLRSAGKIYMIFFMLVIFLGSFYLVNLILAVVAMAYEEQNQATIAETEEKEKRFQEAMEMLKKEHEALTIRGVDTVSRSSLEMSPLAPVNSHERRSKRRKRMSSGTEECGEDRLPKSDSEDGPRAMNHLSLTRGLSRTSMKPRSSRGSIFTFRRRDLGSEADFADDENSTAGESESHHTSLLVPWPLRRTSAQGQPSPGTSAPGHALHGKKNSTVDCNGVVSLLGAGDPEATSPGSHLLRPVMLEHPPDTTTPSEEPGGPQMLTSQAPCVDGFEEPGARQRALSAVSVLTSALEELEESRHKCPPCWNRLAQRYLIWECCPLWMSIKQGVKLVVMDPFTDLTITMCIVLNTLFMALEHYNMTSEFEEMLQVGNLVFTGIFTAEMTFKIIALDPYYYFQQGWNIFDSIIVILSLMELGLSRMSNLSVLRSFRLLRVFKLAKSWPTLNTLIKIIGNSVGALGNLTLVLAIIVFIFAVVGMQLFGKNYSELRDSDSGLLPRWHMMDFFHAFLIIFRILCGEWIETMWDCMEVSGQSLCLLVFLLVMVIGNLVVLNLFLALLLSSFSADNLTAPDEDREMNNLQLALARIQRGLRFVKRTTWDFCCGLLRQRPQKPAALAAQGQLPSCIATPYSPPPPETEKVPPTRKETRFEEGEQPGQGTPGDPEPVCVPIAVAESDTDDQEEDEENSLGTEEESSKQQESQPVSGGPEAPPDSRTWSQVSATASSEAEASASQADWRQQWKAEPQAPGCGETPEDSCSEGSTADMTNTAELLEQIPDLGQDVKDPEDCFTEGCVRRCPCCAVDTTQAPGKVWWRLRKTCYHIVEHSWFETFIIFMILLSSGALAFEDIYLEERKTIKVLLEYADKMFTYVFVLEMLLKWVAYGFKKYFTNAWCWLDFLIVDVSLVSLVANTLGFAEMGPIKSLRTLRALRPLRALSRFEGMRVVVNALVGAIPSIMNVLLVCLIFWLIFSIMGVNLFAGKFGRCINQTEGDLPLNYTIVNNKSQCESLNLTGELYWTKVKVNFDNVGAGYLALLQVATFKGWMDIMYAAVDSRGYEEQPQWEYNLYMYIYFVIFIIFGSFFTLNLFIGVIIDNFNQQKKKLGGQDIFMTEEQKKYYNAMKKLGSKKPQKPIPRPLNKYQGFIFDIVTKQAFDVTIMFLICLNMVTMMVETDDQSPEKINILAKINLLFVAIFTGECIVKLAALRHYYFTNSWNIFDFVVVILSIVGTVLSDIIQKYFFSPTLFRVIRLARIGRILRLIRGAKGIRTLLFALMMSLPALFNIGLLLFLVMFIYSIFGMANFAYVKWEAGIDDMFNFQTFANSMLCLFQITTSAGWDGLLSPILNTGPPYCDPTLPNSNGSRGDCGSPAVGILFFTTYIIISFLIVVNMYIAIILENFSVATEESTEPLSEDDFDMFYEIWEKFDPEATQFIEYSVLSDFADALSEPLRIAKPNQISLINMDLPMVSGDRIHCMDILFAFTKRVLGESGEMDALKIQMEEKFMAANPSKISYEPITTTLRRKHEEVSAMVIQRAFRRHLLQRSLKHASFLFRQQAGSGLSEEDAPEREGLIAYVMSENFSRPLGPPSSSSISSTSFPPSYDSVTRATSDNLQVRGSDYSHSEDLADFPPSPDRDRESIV

[18] = target: Transient receptor potential cation channel subfamily V member 4 (Homo sapiens, UniProt Q9HBA0); assay: Inhibition of TRPV4 (unknown origin) by FLIPR assay
Transient receptor potential cation channel subfamily V member 4, sequence (Q9HBA0 whole entry): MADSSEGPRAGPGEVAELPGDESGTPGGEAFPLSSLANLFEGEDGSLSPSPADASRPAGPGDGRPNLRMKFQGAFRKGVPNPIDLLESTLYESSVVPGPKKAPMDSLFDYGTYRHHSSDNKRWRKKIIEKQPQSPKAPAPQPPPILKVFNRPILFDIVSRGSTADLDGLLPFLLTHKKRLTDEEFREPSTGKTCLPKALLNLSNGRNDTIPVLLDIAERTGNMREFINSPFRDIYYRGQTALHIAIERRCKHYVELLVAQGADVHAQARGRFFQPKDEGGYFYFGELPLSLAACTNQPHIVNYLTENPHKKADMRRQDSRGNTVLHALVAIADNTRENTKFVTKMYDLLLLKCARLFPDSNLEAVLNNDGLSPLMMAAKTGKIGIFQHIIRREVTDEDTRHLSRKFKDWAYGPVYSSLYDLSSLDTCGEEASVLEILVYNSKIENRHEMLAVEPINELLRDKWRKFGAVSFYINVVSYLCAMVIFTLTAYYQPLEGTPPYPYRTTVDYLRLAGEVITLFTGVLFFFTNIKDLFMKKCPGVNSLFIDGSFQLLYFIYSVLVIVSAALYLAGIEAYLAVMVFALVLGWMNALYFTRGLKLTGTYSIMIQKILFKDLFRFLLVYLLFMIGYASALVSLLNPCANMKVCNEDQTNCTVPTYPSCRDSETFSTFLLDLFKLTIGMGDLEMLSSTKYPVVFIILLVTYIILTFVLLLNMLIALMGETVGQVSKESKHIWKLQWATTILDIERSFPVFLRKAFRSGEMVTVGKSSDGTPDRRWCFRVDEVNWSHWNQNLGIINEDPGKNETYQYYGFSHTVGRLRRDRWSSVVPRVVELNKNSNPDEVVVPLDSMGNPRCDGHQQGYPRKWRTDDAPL

[19] = Cmax in rat at 0.86 mg/kg, iv; type: ADME, organism-based; design: dose 0.86 mg/kg, route intravenous; conditions: in vivo
[20] = Mean residence time in rat at 0.86 mg/kg, iv; type: ADME, organism-based; design: dose 0.86 mg/kg, route intravenous; conditions: in vivo
Rattus norvegicus [21] = assay: Dose normalized AUC in rat at 0.86 mg/kg, iv; type: ADME, organism-based; design: dose 0.86 mg/kg, route intravenous; conditions: in vivo
[22] = Clearance in rat at 0.86 mg/kg, iv; type: ADME, organism-based; design: dose 0.86 mg/kg, route intravenous; conditions: in vivo
[23] = Oral bioavailability in rat at 0.86 mg/kg; type: ADME, organism-based; conditions: in vivo

| Compound | IC50 [2] [nM] | IC50 [3] [nM] | also measured |
| --- | --- | --- | --- |
| Cc1sc(Nc2ccc(Cl)cc2F)nc1C(=O)N1CCc2ncccc2C1 | 20000 | 6300 | MRT (Rattus norvegicus [1]): 1.6 h; Cmax [4]: 510 ng/mL; bioavailability [5]: 100%; AUC/dose (Rattus norvegicus [6]): 0.85 kg·h/L; Vdss (Rattus norvegicus [7]): 0.7 L/kg |
| CC1CCN(C(=O)c2csc(Nc3ccc4c(c3)OCO4)n2)CC1 | 400 | 160 | – |
| COc1ccc(Nc2nc(C(=O)N3CCC(c4ccccc4)CC3)cs2)cc1 | 2500 | 1600 | – |
| Cc1ccc(Nc2nc(C(=O)N3CCCCC3c3ccccc3)cs2)cc1 (stereo not given) | 12600 | 15800 | – |
| Cc1sc(Nc2ccc(Cl)cc2F)nc1C(=O)N1CCC[C@@H](C)[C@H]1C | 1000 | 1600 | – |
| Cc1ccc(Nc2nc(C(=O)N3CCCCC3C)cs2)cc1 (stereo not given) | 800 | 630 | – |
| CC1CCN(C(=O)c2csc(Nc3ccccc3Cl)n2)CC1 | 6300 | 3160 | – |

These reach a lower IC50 [2]. Values come first.

| IC50 [2] [nM] | IC50 [3] [nM] | Compound | also measured |
| --- | --- | --- | --- |
| 160 | 25 | Cc1sc(Nc2cc3c(cc2F)OCO3)nc1C(=O)N1CCCC(C)C1C (stereo not given) | – |
| 250 | 50 | Cc1sc(Nc2ccc(Cl)cc2F)nc1C(=O)N1CCCC(C)C1C (racemic) | – |
| 250 | 80 | Cc1ccc(Nc2nc(C(=O)N3CCCC(C)C3C)cs2)cc1 (stereo not given) | bioavailability [8]: < 1%; AUC/dose (Rattus norvegicus [9]): 0.2 kg·L·h; Cmax [10]: 310 ng/mL; IC50 [11]: > 50000 nM; IC50 [12]: 8000 nM; clearance [13]: 75 mL/min/kg; IC50 [14]: 1260 nM; MRT [15]: 2.8 h; IC50 [16]: 10000 nM; IC50 [17]: 50000 nM; IC50 [18]: 6300 nM |
| 316 | 63 | CC1c2ccccc2CCN1C(=O)c1csc(Nc2ccc3c(c2)OCO3)n1 (stereo not given) | – |
| 32 | 4 | CC1CCCN(C(=O)c2nc(Nc3cc4c(cc3F)OCO4)sc2Cl)C1C (stereo not given) | Cmax [19]: 490 ng/mL; MRT [20]: 0.4 h; AUC/dose (Rattus norvegicus [21]): 0.3 kg·L·h; clearance [22]: 46 mL/min/kg; bioavailability [23]: 7% |
